Test results: patent US4148907A, “Stereoisomers of 1-(1'benzyl-2'pyrryl)-2-di-sec.-butylaminoethanol and pharmaceutical compositions comprising same” (Etablissement Viridis, priority 1976, dated 1979)

Assays:
[1] = Acute toxicity (LD50), method of Litchfield and Wilcoxson; conditions: in vivo, ip
From the text: The acute toxicity values (LD50) have been determined by the method of Litchfield and Wilcoxson (J. Pharmacol. 1949, 96, 99) both for the new compounds of this invention and for VIMINOLO and the "R2 " Compound.

[2] = Therapeutic index (LD50/ED50 tail flick); type: in vivo; conditions: ratio of LD50/ED50, ED50 from the tail flick test
From the text: The superiority of new Compounds A and B is also evident from the therapeutic indexes which have been calculated as a ratio of LD50 /ED50' taking as the ED50 value that which is obtained by the tail flick test.

[3] = Analgesic activity, comparison in words (hot plate and tail flick data); type: in vivo; conditions: compared with VIMINOLO
Description: (§1) [α]436^20 (in methanol c= 2%): -48° C.±3° C. The analgesic activity (ED50) of isomers A and B has been determined via the hot plate test on mice (N/.B Eddy et Coll. J. Pharmacol. 98, 121, 1950) and via the "tail flick" test on rats (D'Amour and Smith; J. Pharmacol. 1941, 72, 74). The resulting values are set forth in the following Table and compared with the values given under identical conditions for VIMINOLO and the "R2 " Compound referred to hereinabove (Pharmacological Research Communications 8, 111 (1976)).

mice [4] = conditions: comparison values given under identical conditions (Pharmacological Research Communications 8, 111 (1976)); cited from earlier work
rats [5] = conditions: comparison values given under identical conditions (Pharmacological Research Communications 8, 111 (1976)); cited from earlier work
[6] = compared with other isomers, racemic compound or the disclosed class; cited from earlier work
mice [7] = test: Hot plate test on mice (analgesic activity, ED50); type: in vivo; conditions: Mus musculus, sc
Description: as §1

rats [8] = test: "tail flick" test on rats (analgesic activity, ED50); type: in vivo; conditions: Rattus norvegicus, sc
Description: as §1

Row | Compound | LD50 [1] [mg/kg] | T.I. (therapeutic index) [2] | analgesic activity relative to VIMINOLO [3] | ED50 hot plate s.c (mice [4]) [mg/kg] | ED50 Tail Flick s.c. (rats [5]) [mg/kg] | analgesic activity (prior patents) [6] | ED50 (mice [7]) [mg/kg] | ED50 (rats [8]) [mg/kg]
1 | CCC(C)N(CC(O)c1cccn1Cc1ccccc1Cl)C(C)CC (single isomer, unassigned) ["R2 " Compound] | 230 | 324 | surprisingly more active than VIMINOLO | 1.15 | 0.71 | much more active than the other isomers and also, more active than the corresponding racemic compound "VIMINOLO" |  | 
2 | CC[C@@H](C)N(CC(O)c1cccn1Cc1ccccc1F)[C@H](C)CC (single isomer, unassigned) [Isomer A] | 384 | 872 |  |  |  |  | 0.65 | 0.44
3 | CC[C@@H](C)N(CC(O)c1cccn1Cc1ccccc1C(F)(F)F)[C@H](C)CC (single isomer, unassigned) [Isomer B] | 358 | 942 |  |  |  |  | 0.6 | 0.38
4 | CCC(C)N(CC(O)c1cccn1Cc1ccccc1Cl)C(C)CC (stereo not drawn) [VIMINOLO, 1-[1'(o-chlorobenzyl)-2'-pyrryl]-2-di-sec.-butylaminoethanol] | 167 | 13.36 |  |  | 12.5 | most active compound within the disclosed class of aminoethanols |  | 
